{"source": "patent US20150246024A1", "about": "(priority 2012, published 2015)", "key": {"E. faecium - VRE TX0016": {"tested_on": "E. faecium - VRE TX0016", "experiment": "microbe, parasite or virus in culture", "format": "cell-based", "details": "37° C., 18-22 hours, OD600"}, "C. difficile CD196": {"tested_on": "C. difficile CD196", "experiment": "Growth inhibition assay (MIC/IC50), 96-well", "format": "cell-based"}, "E. faecium TX0016 [1]": {"tested_on": "E. faecium TX0016", "format": "cell-based"}, "S. aureus RN4220 (MSSA)": {"tested_on": "S. aureus RN4220 (MSSA)", "experiment": "microbe, parasite or virus in culture", "format": "cell-based", "details": "37° C., 18-22 hours, OD600"}, "S. aureus RN4220 [2]": {"tested_on": "S. aureus RN4220", "format": "cell-based"}, "E. coli": {"tested_on": "E. coli", "format": "cell-based"}, "B. anthracis Sterne [3]": {"tested_on": "B. anthracis Sterne", "format": "cell-based", "details": "5 μM compound, liquid culture"}, "C. perfringens SM101": {"tested_on": "C. perfringens SM101", "format": "cell-based", "details": "nitrogen atmosphere, 37° C., 18-22 hours"}, "E. faecalis V583 [4]": {"tested_on": "E. faecalis V583", "format": "cell-based"}, "E. faecalis V583 [5]": {"tested_on": "E. faecalis V583", "format": "cell-based", "remark": "listed apart in the source"}, "E. faecium TX0016 [6]": {"tested_on": "E. faecium TX0016", "format": "cell-based", "remark": "listed apart in the source"}, "B. anthracis Sterne [7]": {"tested_on": "B. anthracis Sterne", "experiment": "microbe, parasite or virus in culture", "format": "cell-based", "details": "37° C., 18-22 hours, OD600"}, "[8]": {"molecular_target": "extracellular S. aureus LtaS (eLtaS) (Staphylococcus aureus, UniProt Q2G093)", "sequence (Q2G093 218-646)": "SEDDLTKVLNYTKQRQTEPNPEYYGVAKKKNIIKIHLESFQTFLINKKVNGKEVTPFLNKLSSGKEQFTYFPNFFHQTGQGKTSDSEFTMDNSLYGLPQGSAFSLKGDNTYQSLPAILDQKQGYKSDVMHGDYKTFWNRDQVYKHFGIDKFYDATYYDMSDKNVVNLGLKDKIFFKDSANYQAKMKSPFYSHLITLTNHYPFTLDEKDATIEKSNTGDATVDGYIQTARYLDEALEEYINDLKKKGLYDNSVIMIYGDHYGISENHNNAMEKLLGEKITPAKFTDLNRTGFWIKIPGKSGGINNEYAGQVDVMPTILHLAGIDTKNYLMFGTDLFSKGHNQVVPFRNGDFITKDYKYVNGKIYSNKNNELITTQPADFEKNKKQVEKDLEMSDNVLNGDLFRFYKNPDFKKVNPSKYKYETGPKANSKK", "format": "binding", "details": "200 μM compound in mobile phase"}, "C. difficile R20291": {"tested_on": "C. difficile R20291", "experiment": "Growth inhibition assay (MIC/IC50), 96-well", "format": "cell-based"}, "[9]": {"tested_on": "B. anthracis LtaS2BA expressed in E. coli", "format": "cell-based", "details": "200 μM compound"}, "B. anthracis Sterne [10]": {"tested_on": "B. anthracis Sterne", "format": "cell-based"}, "B. anthracis Ames": {"tested_on": "B. anthracis Ames", "format": "cell-based", "details": "37° C., 18-22 hours, OD600"}, "B. cereus G9142": {"tested_on": "B. cereus G9142", "format": "cell-based"}, "[11]": {"molecular_target": "Recombinant S. aureus LtaSSA expressed in E. coli (Staphylococcus aureus, UniProt Q2G093)", "sequence (Q2G093 whole entry)": "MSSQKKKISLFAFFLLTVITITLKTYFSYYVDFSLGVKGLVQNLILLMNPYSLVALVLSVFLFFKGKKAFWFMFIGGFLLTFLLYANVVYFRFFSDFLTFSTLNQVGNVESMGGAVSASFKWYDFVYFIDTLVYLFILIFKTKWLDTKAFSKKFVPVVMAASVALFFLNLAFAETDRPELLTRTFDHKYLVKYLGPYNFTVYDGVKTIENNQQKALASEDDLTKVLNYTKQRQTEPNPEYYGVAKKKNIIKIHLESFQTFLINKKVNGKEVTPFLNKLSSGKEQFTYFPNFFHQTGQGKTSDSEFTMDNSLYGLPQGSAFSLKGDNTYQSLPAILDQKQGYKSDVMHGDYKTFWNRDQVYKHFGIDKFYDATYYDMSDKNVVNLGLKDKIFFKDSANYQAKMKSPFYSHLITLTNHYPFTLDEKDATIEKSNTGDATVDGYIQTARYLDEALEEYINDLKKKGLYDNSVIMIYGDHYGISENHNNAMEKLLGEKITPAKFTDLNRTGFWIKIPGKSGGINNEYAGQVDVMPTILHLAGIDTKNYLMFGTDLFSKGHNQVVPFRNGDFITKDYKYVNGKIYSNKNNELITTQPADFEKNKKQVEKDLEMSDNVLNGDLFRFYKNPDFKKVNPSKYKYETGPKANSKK", "format": "cell-based"}, "[12]": {"tested_on": "LTA production in S. aureus", "experiment": "Inhibition of LTA synthesis in S. aureus (immunoblot)"}, "C. difficile JIR8094": {"tested_on": "C. difficile JIR8094", "experiment": "Growth inhibition assay (MIC/IC50), 96-well", "format": "cell-based", "details": "sigmoidal fit"}, "C. difficile UK1": {"tested_on": "C. difficile UK1", "experiment": "Growth inhibition assay (MIC/IC50), 96-well", "format": "cell-based"}, "[13]": {"tested_on": "S. aureus RN4220 colony isolates from gradient plates with 10-200 μM compound 1771", "experiment": "Susceptibility of colony isolates from compound 1771 gradient plates", "format": "cell-based"}, "eLtaS": {"molecular_target": "eLtaS (Staphylococcus aureus, UniProt Q2G093)", "sequence (Q2G093 218-646)": "as the sequence (Q2G093 218-646) above", "experiment": "eLtaS-mediated cleavage of NBD-PGC6 to NBD-DAGC6", "format": "biochemical, S. aureus", "details": "100 μM compound, 6 hours, 37° C.", "description": "FIG. 10. Compound 1771 inhibits eLtaS binding to and cleavage of phosphatidylglycerol (PG) in vitro. Using NBD-PGC6 with 6 carbon acyl chains cleavage of 2 nmol substrate by 2 nmol eLtaS was detectable after 6 hours incubation at 37° C. Chloroform extraction separated non-hydrolyzed NBD-PGC6 (aqueous phase—AP) from the hydrophobic reaction product nitro-benzoxadiazole diacylglycerol (NBD-DAGC6), which segregated into the organic phase (OP). Both phases were analyzed by normal-phase HPLC on a diol column (solid line). Elution profiles were monitored by fluorescence (excitation at 460 nm, emission at 534 nm). Identity of peak fractions was confirmed by mass spectrometry. Addition of 100 μM compound 1771 blocked NBD-DAGC6 production by eLtaS (dashed line).\nWe used size exclusion HPLC with BioBasic SEC300 column equilibrated with 20 nmol nitro-benzoxadiazole glycerol-phosphate (NBD-GP) to measure binding of enzyme to substrate. Chromatography of 2 nmol eLtaS on BioBasic SEC300 column led to the elution of enzyme.NBD-GP complex and absorbance at 460 nm (FIG. 5). […]"}, "E. faecalis - VRE V583": {"tested_on": "E. faecalis - VRE V583", "experiment": "microbe, parasite or virus in culture", "format": "cell-based", "details": "37° C., 18-22 hours, OD600"}, "[14]": {"experiment": "Half-life of compound in mice (blood, HPLC, mass spectrometry)", "format": "in vivo", "details": "32 mg/kg intraperitoneal", "description": "The therapeutic impact of compound 1771 during infection was examined. First, we evaluated the half-life of compound 1771 in vivo. Animals received intraperitoneal injections with 32 mg/kg of compound. The blood of three animals was drawn 1, 6 and 12 hours following intraperitoneal injections and the compound was extracted with methanol and chloroform, separated by reverse phase HPLC and subjected to mass spectrometry (data not shown). […] The conversion occurred between 3 and 6 hours. To evaluate, the efficacy of compound 1771, we used a mouse model of staphylococcal sepsis. Animals received intraperitoneal injections with 32 mg/kg of compound in 12-hour intervals. Treatment was initiated 24 hours prior to challenge and terminated at 72 hours post infection.\nTo examine the therapeutic value of compound 1771, we evaluated its half-life in mice. Animals received a single intraperitoneal injection of 32 mg/kg compound 1771. The blood of three animals was drawn 1, 6 and 12 hours following 1771 injection and serum samples were extracted with methanol and chloroform, separated by reversed-phase HPLC and subjected to mass spectrometry. […] Full conversion of compound 1771 into its two cleavage fragments occurred between 3 and 6 hours following injection. […]"}, "S. aureus - MRSA USA300": {"tested_on": "S. aureus - MRSA USA300", "experiment": "microbe, parasite or virus in culture", "format": "cell-based", "details": "37° C., 18-22 hours, OD600"}, "S. aureus RN4220 [15]": {"tested_on": "S. aureus RN4220", "experiment": "Growth of S. aureus culture with sub-lethal compound (OD600)", "details": "until control culture OD600 1.0"}, "S. aureus RN4220 [16]": {"tested_on": "S. aureus RN4220", "format": "cell-based", "remark": "listed apart in the source"}}, "note": "Where “and” joins values, the source holds several entries; their conditions need not be identical. Equal entries are not always repeated. Entries after “also recorded” stand apart in the source; their conditions may differ."}
{"smiles": "O=C(COC(=O)Cc1coc2ccc3ccccc3c12)Nc1nnc(-c2ccccc2)o1", "note": "[Compound 1771, 2-oxo-2-[(5-phenyl-1,3,4-oxadiazol-2-yl)amino]ethylnaphtho[2,1-b]furan-1-ylacetate]", "values": [{"measurement": "MIC", "setting": "E. faecium - VRE TX0016", "result": 50.0, "unit": "µM"}, {"measurement": "IC50", "setting": "E. faecium - VRE TX0016; sigmoidal fit, read-out: IC50", "result": 23.3, "unit": "µM"}, {"measurement": "MIC", "setting": "C. difficile CD196", "result": 6.5, "unit": "µM"}, {"measurement": "IC50", "setting": "C. difficile CD196; sigmoidal fit", "result": 4.3, "unit": "µM"}, {"measurement": "Cell envelope diameter", "setting": "E. faecium TX0016 [1]", "result": "32.4 (±0.5) nm"}, {"measurement": "Cell envelope diameter Δ (1771 vs mock)", "setting": "E. faecium TX0016 [1]", "result": "9.6 (±0.6) nm"}, {"measurement": "MIC", "setting": "S. aureus RN4220 (MSSA)", "result": 12.5, "unit": "µM"}, {"measurement": "IC50", "setting": "S. aureus RN4220 (MSSA); sigmoidal fit, read-out: IC50", "result": "7.48 µM and 7.3 µM"}, {"measurement": "Cell envelope diameter", "setting": "S. aureus RN4220 [2]", "result": "38.8 (±0.9) nm"}, {"measurement": "Cell envelope diameter Δ (1771 vs mock)", "setting": "S. aureus RN4220 [2]", "result": "7.5 (±1.1) nm"}, {"measurement": "growth of E. coli", "setting": "E. coli", "result": "not affected; also recorded: did not affect the growth"}, {"measurement": "chain length of vegetative bacilli", "setting": "B. anthracis Sterne [3]", "result": "increased chain length; also recorded: formed longer chains"}, {"measurement": "MIC", "setting": "C. perfringens SM101", "result": 6.2, "unit": "µM"}, {"measurement": "IC50", "setting": "C. perfringens SM101; sigmoidal fit", "result": 2.5, "unit": "µM"}, {"measurement": "Cell envelope diameter", "setting": "E. faecalis V583 [4]", "result": "31.6 (±0.6) nm"}, {"measurement": "Cell envelope diameter Δ (1771 vs mock)", "setting": "E. faecalis V583 [4]", "result": "7.8 (±0.7) nm"}, {"measurement": "Cell clusters/all cocci", "setting": "E. faecalis V583 [5]", "result": "2/496"}, {"measurement": "Cell clusters/all cocci", "setting": "E. faecium TX0016 [6]", "result": "1/295"}, {"measurement": "MIC", "setting": "B. anthracis Sterne [7]", "result": 12.5, "unit": "µM"}, {"measurement": "IC50", "setting": "B. anthracis Sterne [7]; sigmoidal fit, read-out: IC50", "result": "7.7 µM and 6.53 µM"}, {"measurement": "Co-elution of phosphatidylglycerol with eLtaS, reduction", "setting": "[8]", "result": "more than 95%"}, {"measurement": "elution of NBD-PG.eLtaS complex", "setting": "[8]", "result": "abolished"}, {"measurement": "MIC", "setting": "C. difficile R20291", "result": 6.2, "unit": "µM"}, {"measurement": "IC50", "setting": "C. difficile R20291; sigmoidal fit", "result": 5.3, "unit": "µM"}, {"measurement": "LTA production by LtaS2BA", "setting": "[9]", "result": "completely abolished; also recorded: abrogated"}, {"measurement": "Cell envelope diameter Δ (1771 vs mock)", "setting": "B. anthracis Sterne [10]; 8 μM compound", "result": "6.3 (±1.0) nm"}, {"measurement": "Cell envelope diameter", "setting": "B. anthracis Sterne [10]; BHI agar with 8 μM compound, mean of 124 (SEM)", "result": "46.8 (±0.7) nm"}, {"measurement": "MIC", "setting": "B. anthracis Ames", "result": 12.5, "unit": "µM"}, {"measurement": "IC50", "setting": "B. anthracis Ames; sigmoidal fit", "result": 7.6, "unit": "µM"}, {"measurement": "IC50", "setting": "B. cereus G9142", "result": 10.7, "unit": "µM"}, {"measurement": "MIC", "setting": "B. cereus G9142", "result": 25.0, "unit": "µM"}, {"measurement": "production of LTA promoted by plasmid encoded LtaSSA", "setting": "[11]", "result": "abrogated"}, {"measurement": "LtaS immunoreactive signals", "setting": "[12]; 5 μM compound", "result": "slightly unstable; also recorded: reduced"}, {"measurement": "abundance of sortase A (SrtA), control", "setting": "[12]; 2 or 5 μM compound", "result": "remained unaffected; also recorded: not affected"}, {"measurement": "LTA production (immunoblot α-LTA)", "setting": "[12]; sub-lethal concentrations of compound", "result": "affect the production of LTA; also recorded: reduced the abundance of LTA"}, {"measurement": "IC50", "setting": "C. difficile JIR8094", "result": 8.2, "unit": "µM"}, {"measurement": "MIC", "setting": "C. difficile UK1", "result": 6.2, "unit": "µM"}, {"measurement": "IC50", "setting": "C. difficile UK1; sigmoidal fit", "result": 3.3, "unit": "µM"}, {"measurement": "IC50", "setting": "[13]; Isolate 1", "result": 8.7, "unit": "µM"}, {"measurement": "MIC", "setting": "[13]; Isolate 1", "result": 18.8, "unit": "µM"}, {"measurement": "IC50", "setting": "[13]; Isolate 2", "result": 9.2, "unit": "µM"}, {"measurement": "MIC", "setting": "[13]; Isolate 2", "result": 18.8, "unit": "µM"}, {"measurement": "IC50", "setting": "[13]; Isolate 3", "result": 12.2, "unit": "µM"}, {"measurement": "MIC", "setting": "[13]; Isolate 3", "result": 18.8, "unit": "µM"}, {"measurement": "NBD-DAGC6 production by eLtaS", "setting": "eLtaS", "result": "blocked; also recorded: inhibited"}, {"measurement": "MIC", "setting": "E. faecalis - VRE V583", "result": 50.0, "unit": "µM"}, {"measurement": "IC50", "setting": "E. faecalis - VRE V583; sigmoidal fit, read-out: IC50", "result": 27.3, "unit": "µM"}, {"measurement": "stability in mice", "setting": "[14]", "result": "unstable in mice with rapid loss of activity"}, {"measurement": "MIC", "setting": "S. aureus - MRSA USA300", "result": 50.0, "unit": "µM"}, {"measurement": "IC50", "setting": "S. aureus - MRSA USA300; sigmoidal fit, read-out: IC50", "result": 14, "unit": "µM"}, {"measurement": "reduced growth of staphylococci", "setting": "S. aureus RN4220 [15]; 2 μM compound", "result": 50, "unit": "%"}, {"measurement": "reduced growth of staphylococci", "setting": "S. aureus RN4220 [15]; 5 μM compound", "result": 75, "unit": "%"}, {"measurement": "Cell clusters/all cocci", "setting": "S. aureus RN4220 [16]", "result": "3/387"}]}
